# Experimental data reported in patent US8063033B2, “Therapeutic beta-lactams” (Allergan, Inc., priority 2008, dated 2011).
# Tested on: lashes and adjacent hairs of patients
# Assay: Observation of eyelash/hair growth in glaucoma patients treated in one eye
# Assay type: in vivo, human
# Conditions: glaucoma patient treated in one eye only
# From the text: In the course of treating patients having glaucoma, treatment may only be appropriate in one eye. […] The lash appearance on the lids of the treated eyes would have appeared quite attractive if it represented a bilateral phenomenon. As a result of its asymmetric nature, the long lashes on one side could be construed as disturbing from a cosmetic standpoint. A systemic examination was preformed as a result of the asymmetric phenomenon. It soon became apparent that this altered appearance was not an isolated finding. […] Definite differences could be identified to varying degrees in the lashes and adjacent hairs of all patients who were taking the drug on a unilateral basis for longer than 6 months.
# The changes in the lashes were apparent on gross inspection in several patients once attention was focused on the issue. In those with light colored hair and lashes, the differences were only seen easily with the aid of the high magnification and lighting capabilities of the slit lamp biomicroscope. In the course of glaucoma follow-up examination, attention is generally immediately focused on the eye itself. As a result of the high power magnification needed only one eye is seen at a time and the eye is seen at a high enough power that the lashes are not in focus. […]
compound,measurement,value
CCNC(=O)CCC/C=C\C[C@@H]1[C@@H](/C=C/[C@@H](O)CCc2ccccc2)[C@H](O)C[C@@H]1O [bimatoprost],lash appearance in treated eye versus non-treated eye,"longer, thicker, and fuller"
